As a reminder, the melting point is the temperature of the solid-liquid transition.

This passage reports inhibition and melting point results from patent US6352958B1, “Cycloimido-substituted benzofused heterocyclic herbicides” (FMC Corporation, priority 1997, dated 2002).

Data set [1] has as its system field corn (Zea mays var. Pioneer 3732). Kind of data set: Preemergence herbicidal activity, corn. To be noted: Zea mays, pre-emergence, Rate of Application 0.3 Kg/Ha, examined after 12-17 days, read-out: PREEMERGENCE HERBICIDAL ACTIVITY (% CONTROL) CRN. It is filed as in vivo.
For data set [2], the system named is velvetleaf (Abutilon theophrasti). Kind of data set: Preemergence herbicidal activity, velvetleaf. It counts as in vivo. To be noted: Abutilon theophrasti, pre-emergence, Rate of Application 0.3 Kg/Ha, examined after 12-17 days, read-out: PREEMERGENCE HERBICIDAL ACTIVITY (% CONTROL) ABUTH.
Data set [3] concerns common cocklebur (Xanthium strumarium L.). Kind of data set: Preemergence herbicidal activity, cocklebur. It counts as in vivo. Conditions: Xanthium strumarium, pre-emergence, Rate of Application 0.3 Kg/Ha, examined after 12-17 days, read-out: PREEMERGENCE HERBICIDAL ACTIVITY (% CONTROL) XANPE.
The test system of data set [4] is blackgrass (Aloepecurus myosuroides). The data set can be described thus: Preemergence herbicidal activity, blackgrass. It is filed as in vivo. To be noted: Alopecurus myosuroides, pre-emergence, Rate of Application 0.3 Kg/Ha, examined after 12-17 days, read-out: PREEMERGENCE HERBICIDAL ACTIVITY (% CONTROL) ALOMY.
The test system of data set [5] is green foxtail (Setaria viridis). Kind of data set: Preemergence herbicidal activity, green foxtail. To be noted: Setaria viridis, pre-emergence, Rate of Application 0.3 Kg/Ha, examined after 12-17 days, read-out: PREEMERGENCE HERBICIDAL ACTIVITY (% CONTROL) SETVI. It counts as in vivo.
Data set [6] has as its system velvetleaf (Abutilon theophrasti). Kind of data set: Postemergence herbicidal activity, velvetleaf. To be noted: Abutilon theophrasti, post-emergence, rate of application 0.3 Kg/Ha, rated after 12-17 days, read-out: Postemergence herbicidal activity (% control) ABUTH. It counts as in vivo.

For the compound `CC(C)c1nc2c(-n3c(=O)cc(C(F)(F)F)n(C)c3=O)c(F)cc(Cl)c2o1` [Compound 28, 1-METHYL-6-TRIFLUOROMETHYL-3-[7-CHLORO-5-FLUORO-2-(1-METHYLETHYL)BENZOXAZOL4-YL]-2,4(1H,3H)-PYRIMIDINEDIONE], the inhibition at 300 g/ha in data set [1] came out at 95%; in data set [2], 100%; in data set [3], 100%; in data set [4], 100%; in data set [5], 100%; in data set [6] it was 100%.
For `Cn1c(C(F)(F)F)cc(=O)n(-c2c(F)cc(Cl)c3[nH]c(C(F)(F)F)cc23)c1=O` [Compound 500, 3-(7-CHLORO-5-FLUORO-2-TRIFLUOROMETHYLINDOL-4-YL)-1-METHYL-6-TRIFLUOROMETHYL-2,4(1H,3H)-PYRIMIDINEDIONE], the melting point was in the range of 208 to 210 °C. Besides, in data set [1], the inhibition at 300 g/ha was determined as 90%. Also, the inhibition at 300 g/ha in data set [2] came to 100%. For the same compound, the inhibition at 300 g/ha in data set [3] amounted to 100%. Moreover, the inhibition at 300 g/ha in data set [4] was found to be 75%. Also, in data set [5], the inhibition at 300 g/ha was 100%. Further, the inhibition at 300 g/ha in data set [6] is 100%.
The compound `CCc1nc2c(-n3c(=O)cc(C(F)(F)F)n(C)c3=O)c(F)cc(Cl)c2[nH]1` [Compound 367, 3-(4-CHLORO-2-ETHYL-6-FLUOROBENZIMIDAZOL-7-YL)-1-METHYL-6-TRIFLUOROMETHYL-2,4(1H,3H)-PYRIMIDINEDIONE] gave a melting point of 150 to 155 °C. In addition, the inhibition at 300 g/ha in data set [1] amounted to 100%. In data set [2], the inhibition at 300 g/ha amounted to 100%. Besides, the inhibition at 300 g/ha in data set [3] amounted to 100%. In addition, in data set [4], the inhibition at 300 g/ha worked out at 90%. Besides, in data set [5], the inhibition at 300 g/ha worked out at 100%. Also, the inhibition at 300 g/ha in data set [6] worked out at 100%.
